# Source: patent US20250179047A1, “5-[7-(3,4-DIHYDRO-1H-ISOQUINOLINE-2-CARBONYL)-1,2,3,4 TETRAHYDROISOQUINOLIN-6-YL]-1H-PYRROLE-3-CARBOXAMIDE DERIVATIVES, PHARMACEUTICAL COMPOSITIONS CONTAINING THEM AND THEIR USES AS PRO-APOPTOTIC AGENTS” (LES LABORATOIRES SERVIER, priority 2022, published 2025)
# Read-outs that look alike come from different tables or passages of the source.
# Key:
# KMS-12-PE Bcl-2 WT = experiment: In vitro cytotoxicity CellTiter-Glo 48 h, KMS-12-PE Bcl-2 WT; assay type: cell-based; conditions: Homo sapiens, KMS-12-PE, C50 = concentration needed to reach 50% of the cellular viability
# In short: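 CTG luminescence read-out; C50 = concentration reaching 50% cellular viability. Cells: KMS-12-PE expressing Bcl-2 WT or G101V (lentiviral, TagRFP-sorted). 11-pt curve, 48 h, 37 °C/5% CO2.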
# BCL2 D103Y = BCL2 D103Y (Homo sapiens, UniProt P10415, D103Y); experiment: TR-FRET competitive binding assay, BCL2 D103Y; conditions: Ki determined from IC50, read-out: TR_FRET EKI_Bcl2 D103Y
# In short: (§1)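 Ki derived from IC50 (11-point dilution, 520/495 nm emission ratio) for displacing a fluorescein-labelled PUMA peptide (2 or 20 nM). Target was 0.5 nM E. coli-expressed Halo-tagged BCL2 (1-207) or BCLXL (2-196), terbium-labelled on Halo. Incubation 2 h at 23°C in pH 7.5 Hepes with 150 mM NaCl and 5% DMSO.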
# BCLXL WT = BCLXL WT (Homo sapiens (Human), UniProt Q07817); experiment: TR-FRET competitive binding assay, BCLXL WT; conditions: for Ki: BCLXL WT, Ki determined from IC50, read-out: TR_FRET EKI BclxL; for TR_FRET EKI BCLxL/WT selectivty ratio: ratio Ki BCLxL / Ki BCL2 WT; for TR_FRET EKI BCLxL/WT selectivty: ratio of Ki BCLxL to BCL2 WT
# BCLXL WT, sequence (Q07817 other isoform, or with tags, fused parts or gaps): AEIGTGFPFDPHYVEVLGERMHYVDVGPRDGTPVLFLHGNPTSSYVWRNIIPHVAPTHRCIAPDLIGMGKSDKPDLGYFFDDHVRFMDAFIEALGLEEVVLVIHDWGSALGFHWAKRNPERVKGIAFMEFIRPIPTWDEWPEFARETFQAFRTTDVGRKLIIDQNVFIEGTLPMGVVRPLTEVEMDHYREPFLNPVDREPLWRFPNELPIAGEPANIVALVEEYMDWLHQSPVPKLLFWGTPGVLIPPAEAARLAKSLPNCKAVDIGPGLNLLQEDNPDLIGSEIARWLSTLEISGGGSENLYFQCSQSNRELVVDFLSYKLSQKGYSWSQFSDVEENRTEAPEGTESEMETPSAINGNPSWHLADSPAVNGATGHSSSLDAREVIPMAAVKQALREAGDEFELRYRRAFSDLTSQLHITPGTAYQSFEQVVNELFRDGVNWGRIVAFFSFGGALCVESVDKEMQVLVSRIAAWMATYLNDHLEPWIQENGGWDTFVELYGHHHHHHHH
# In short: as §1
# BCL2 WT = BCL2 WT (Homo sapiens (Human), UniProt P10415); experiment: TR-FRET competitive binding assay, BCL2 WT
# In short: as §1
# KMS-12-PE Bcl-2 G101V = experiment: In vitro cytotoxicity CellTiter-Glo 48 h, KMS-12-PE Bcl-2 G101V; assay type: cell-based; conditions: for Ratio (G101V/WT): C50 KMS-12-PE Bcl-2 G101V over C50 KMS-12-PE Bcl-2 WT; for IC50: Homo sapiens, KMS-12-PE, 48 h, CellTiter-Glo, C50 = concentration needed to reach 50% of the cellular viability
# Method: KMS-12-PE (ACC 606) were purchased from the Leibniz-Institute DSMZ (Braunschweig, Germany) and were grown at 37° C. in a humidified atmosphere with […] in media recommended by the suppliers. Lentiviral particles containing Bcl-2 wild type (also named “Bcl2 WT”) and Bcl-2 mutated on G101V (also named “Bcl2 G101V”) were cloned into pcLV-CMV-DEST-IRES-TagRFP. Lentiviral particles (1×106) were mixed with Polybrene at 8 µg/ml and transduced by spinoculation for 1 h at 32° C. and incubated overnight. After 8 days, TagRFP positive-cells were sorted by FACS. BCL2 expression was monitored by immunoblotting using anti-Flag and anti-BCL2 antibodies.
# Cellular viability was monitored with the cell viability assay (CellTiter-Glo®) on KMS-12-PE WT and G101V cell lines. The CellTiter-Glo® (CTG) Luminescent Cell Viability Assay (from Promega) is a homogeneous method to determine the number of viable cells in culture based on quantitation of the ATP present, which signals the presence of metabolically active cells.
# Dose response of compounds are performed with 10 mM stock solutions (DMSO), 11-points curve, in a 384-well compound plate. The assay plate is prepared by stamping 40 nL from compound dilution plate of all different concentrations (e.g. 10 mM to have final […] assay test) into a cell culture microplate, using Echo acoustic liquid handling (Labcyte, Beckman). 40 μl of cell solution is added and cells are incubated with compounds for 48 h at 37° C., 5% CO2. CTG was added to the cells (according to the manufacturer instructions) and luminescence intensity was recorded using the Pherastar plate reader (BMG).
# This assay provides in vitro cellular potency of the tested Bcl-2 inhibitors, measuring the C50, defined as the concentration needed to reach 50% of the cellular viability.
# BCL2 G101V [1] = experiment: TR-FRET competitive binding assay, BCL2 G101V; parameters: species or system human; conditions: for TR_FRET EKI G101V/WT selectivty ratio: ratio Ki BCL2 G101V / Ki BCL2 WT; for TR_FRET EKI G101V/WT selectivty: ratio of Ki BCL2 G101V to BCL2 WT
# In short: as §1
# BCL2 G101V [2] = biological target: BCL2 G101V (Homo sapiens, UniProt P10415, G101V); experiment: TR-FRET competitive binding assay, BCL2 G101V; conditions: BCL2 G101V; Ki determined from IC50; read-out: TR_FRET EKI_Bcl2 G101V
# In short: as §1
# [3] = Ki determined from IC50, read-out: TR_FRET EKI_Bcl2 WT
# [4] = Ki determined from IC50, read-out: TR_FRET EKI_Bcl2
Ki (BCL2 D103Y) [nM],Ki (BCLXL WT) [nM],TR_FRET EKI BCLxL/WT selectivty ratio (BCLXL WT),Ki (BCL2 WT; [3]) [nM],TR_FRET EKI G101V/WT selectivty ratio (BCL2 G101V [1]),Ki (BCL2 G101V [2]) [nM],TR_FRET EKI BCLxL/WT selectivty (BCLXL WT),Ki (BCL2 WT; [4]) [nM],TR_FRET EKI G101V/WT selectivty (BCL2 G101V [1]),Compound,IC50 (KMS-12-PE Bcl-2 WT) [µM],Ratio (G101V/WT) (KMS-12-PE Bcl-2 G101V),IC50 (KMS-12-PE Bcl-2 G101V) [µM]
0.29,2.3,20.9,0.11,8.4,0.9,–,–,–,"Cc1c(N(C(=O)c2cc(-c3cc4c(cc3C(=O)N3Cc5ccccc5C[C@H]3C)CN(C(=O)Cc3ccc([C@H]5C[C@@H]5N5CCOCC5)cc3F)CC4)n(C)c2C)c2ccc(O)cc2)cc(C#N)n1C (single isomer, unassigned) [Example 70, N-(5-cyano-1,2-dimethyl-pyrrol-3-yl)-5-[2-[2-[2-fluoro-4-[(1S,2R) or (1R,2S)-2-morpholinocyclopropyl]phenyl]acetyl]-7-[(3R)-3-methyl-3,4-dihydro-1H-isoquinoline-2-carbonyl]-3,4-dihydro-1H-isoquinolin-6-yl]-N-(4-hydroxyphenyl)-1,2-dimethyl-pyrrole-3-carboxamide]",0.0076,8.32,0.0629
0.28,1.4,10.8,0.13,3.7,0.5,–,–,–,"Cc1c(N(C(=O)c2cc(-c3cc4c(cc3C(=O)N3Cc5ccccc5C[C@H]3C)CN(C(=O)Cc3ccc(OCCN5CCOC(C)C5)cc3F)CC4)n(C)c2C)c2ccc(O)cc2)cc(C#N)n1C (single isomer, unassigned) [Example 75, N-(5-cyano-1,2-dimethyl-1H-pyrrol-3-yl)-5-[2-(2-{2-fluoro-4-[2-((2S or R)-2-methylmorpholin-4-yl)ethoxy]phenyl}acetyl)-7-[(3R)-3-methyl-1,2,3,4-tetrahydroisoquinoline-2-carbonyl]-1,2,3,4-tetrahydroisoquinolin-6-yl]-N-(4-hydroxyphenyl)-1,2-dimethyl-1H-pyrrole-3-carboxamide]",0.0037,3.93,0.0147
0.4,–,–,0.22,7.7,1.7,–,–,–,"Cc1c(N(C(=O)c2cc(-c3cc4c(cc3C(=O)N3Cc5ccccc5C[C@H]3C)CN(C(=O)Cc3ccccc3C#N)CC4)n(C)c2C)c2ccc(O)cc2)cc(C#N)n1C [Example 12, N-(5-cyano-1,2-dimethyl-1H-pyrrol-3-yl)-5-{2-[2-(2-cyanophenyl)acetyl]-7-[(3R)-3-methyl-1,2,3,4-tetrahydroisoquinoline-2-carbonyl]-1,2,3,4-tetrahydroisoquinolin-6-yl}-N-(4-hydroxyphenyl)-1,2-dimethyl-1H-pyrrole-3-carboxamide]",0.0074,9.14,0.0676
0.132,4.3,–,–,–,5.25,65.2,0.066,79.5,Cc1c(C(=O)N(c2ccccc2)c2cnn(C)c2)cc(-c2cc3c(cc2C(=O)N2Cc4ccccc4C[C@H]2C)CN(C(=O)Cc2ccc(OCCN(C)C)cc2F)CC3)n1C [Example 239],0.0128,–,–
0.15,37.5,–,–,–,6.7,323,0.116,57.8,Cc1c(C(=O)N(c2ccccc2)c2cnn(C)c2)cc(-c2cc3c(cc2C(=O)N2Cc4ccccc4C[C@H]2CN2CCCCC2)CN(C(=O)Cc2ccc(OCCC4CCOCC4)cc2)CC3)n1C [Example 240],0.0446,–,–
0.64,52.7,–,–,–,39.2,216,0.244,160.7,Cc1c(C(=O)N(c2ccccc2)c2cnn(C(F)F)c2)cc(-c2cc3c(cc2C(=O)N2Cc4ccccc4C[C@H]2CN2CCCCC2)CN(C(=O)Cc2ccc(OCCC4CCOCC4)cc2)CC3)n1C [Example 241],0.0586,–,–
